Laboratory results as given in ChEMBL document CHEMBL1150849, “Antiprotozoal activity of the constituents of Conyza filaginoides” (J Nat Prod, 2001).
Converted amounts (≈) assume the structure as drawn.

Experiments:
[1] = tested on: Entamoeba histolytica; experiment: Antiprotozoal activity against Entamoeba histolytica HM-1:IMSS trophozoites after 48 hrs by MTT/PMS assay; type: functional, organism-based
[2] = tested on: Giardia intestinalis; experiment: Antiprotozoal activity against Giardia lamblia IMSS:0989:1 after 48 hrs by MTT/PMS assay; type: functional, organism-based; settings: Giardia duodenalis, IMSS:0989:1, 48 h

| SMILES | IC50 [1] [µg/mL] | IC50 [2] [µg/mL] |
| --- | --- | --- |
| COc1cc(-c2oc3cc(O)cc(O)c3c(=O)c2O[C@@H]2O[C@H](COC(=O)/C=C/c3ccc(O)c(O)c3)[C@H](O)[C@H](O)[C@H]2O)ccc1O | 47.7 (≈ 74.5 µM) | 15.3 (≈ 23.9 µM) |
| O=C(/C=C/c1ccc(O)c(O)c1)OC[C@H]1O[C@@H](Oc2c(-c3ccc(O)c(O)c3)oc3cc(O)cc(O)c3c2=O)[C@H](O)[C@@H](O)[C@@H]1O | 14 (≈ 22.3 µM) | 105 (≈ 167 µM) |
| C=C1CC[C@H]2O[C@@]2(C)CC[C@@H]2[C@@H]1CC2(C)C | 71.3 (≈ 324 µM) | 53.8 (≈ 244 µM) |
| O=C(/C=C/c1ccc(O)c(O)c1)OC[C@H]1O[C@@H](Oc2c(-c3ccc(O)cc3)oc3cc(O)cc(O)c3c2=O)[C@H](O)[C@@H](O)[C@H]1O | 30 (≈ 49.1 µM) | 47 (≈ 77 µM) |
| O=c1c(O[C@@H]2O[C@H](CO)[C@@H](O)[C@H](O)[C@H]2O)c(-c2ccc(O)cc2)oc2cc(O)cc(O)c12 [ASTRAGALIN] | 61.2 (≈ 136 µM) | 47.5 (≈ 106 µM) |
| CC[C@H]1CN2CCc3cc(OC)c(OC)cc3[C@@H]2C[C@@H]1C[C@H]1NCCc2cc(OC)c(OC)cc21 [EMETINE] | 1.05 (≈ 2.18 µM) | 0.41 (≈ 0.853 µM) |
| CC1(C)CC[C@]2(CO)CC[C@]3(C)C(=CC[C@@H]4[C@@]5(C)CC[C@H](O)C(C)(C)[C@@H]5CC[C@]43C)[C@@H]2C1 [ERYTHRODIOL] | 12.7 (≈ 28.7 µM) | 29.9 (≈ 67.5 µM) |
| O=c1c(O[C@@H]2O[C@H](CO)[C@@H](O)[C@H](O)[C@H]2O)c(-c2ccc(O)c(O)c2)oc2cc(O)cc(O)c12 [ISOQUERCETIN] | 14.7 (≈ 31.7 µM) | 87.3 (≈ 188 µM) |
| COc1cc(-c2oc3cc(O)cc(O)c3c(=O)c2O[C@@H]2O[C@H](CO[C@@H]3O[C@@H](C)[C@H](O)[C@@H](O)[C@H]3O)[C@@H](O)[C@H](O)[C@H]2O)ccc1O [NARCISSIN] | 17.2 (≈ 27.5 µM) | 94.7 (≈ 152 µM) |
| C[C@@H]1O[C@@H](OC[C@H]2O[C@@H](Oc3c(-c4ccc(O)cc4)oc4cc(O)cc(O)c4c3=O)[C@H](O)[C@@H](O)[C@@H]2O)[C@H](O)[C@H](O)[C@H]1O [NICOTIFLOROSIDE] | 30.9 (≈ 52 µM) | 22.5 (≈ 37.8 µM) |
| C[C@@H]1O[C@@H](OC[C@H]2O[C@@H](Oc3c(-c4ccc(O)c(O)c4)oc4cc(O)cc(O)c4c3=O)[C@H](O)[C@@H](O)[C@@H]2O)[C@H](O)[C@H](O)[C@H]1O [RUTIN] | 120 (≈ 196 µM) | 179 (≈ 293 µM) |
